Reference: patent US20220313719A1, “METHODS OF TREATING DISEASES ASSOCIATED WITH CHANGES IN PLATELET COUNTS USING PROTEIN KINASE A ACTIVATOR AND INHIBITOR” (Soochow university, priority 2017, published 2022)

Columns and labels:
platelets = experiment: Anti-platelet antibody R300-induced platelet clearance (ITP mouse model); assay type: in vivo, ICR mice; conditions: for platelet counts versus NS group at 30 min: injection 10 min before R300 (0.1 μg/g), PGE2 20 ng/ml, cAMP 12 μg/ml, P<0.05
Experimental: After 10 min, the anti-platelet antibody R300 (0.2 μg/kg) was intraperitoneally injected into the mice, and the whole blood was collected from the orbital vein at different time points. The platelets were counted by a Sysmex XP-100 blood analyzer, 6 mice were used per group, and the results were expressed as mean±standard deviation (FIG. 12C).
12 ICR mice were divided into two groups with 6 mice in each group. The 6 mice in the experimental group were injected with milrinone (1 mg/kg), and the 6 mice in the control group were injected with normal saline (NS). 10 min after the mice were injected with the milrinone (1 mg/kg) (or NS) in the tail vein, the mice were intraperitoneally injected with the R300 antibody (0.1 mg/kg). Blood sampling and counting were then carried out at each time point.
First, the mice were sampled for blood as a reference value. Then the control group and the test group were injected with 0.9% NS and PGE2 (20 ng/ml), respectively. After 10 min, R300 (0.1 μg/g) was injected. Blood sampling and counting were then carried out at 30 min, 2 h, 4 h, 6 h, and 24 h.
First, the mice were sampled for blood as a reference value. Then the control group and the test group were injected with 0.9% NS and cAMP (12 μg/ml), respectively. After 10 min, R300 (0.1 μg/g) was injected. Blood sampling and counting were then carried out at 30 min, 2 h, 4 h, 6 h, and 24 h.
First, the mice were sampled for blood as a reference value. Then the control group and the test group were injected with 0.9% NS and aminophylline (0.24 mmol/L), respectively. After 10 min, R300 (0.1 μg/g) was injected. Then blood sampling and counting were carried out at 30 min, 2 h, 4 h, 6 h, and 24 h (FIG. 20).

washed platelets [1] = experiment: Fasudil platelet apoptosis (ΔΨm and PS exposure) with thrombin; assay type: cell-based, human; conditions: 10 min room temperature, then thrombin 0.1 U/ml 30 min 37° C.
Experimental: Washed platelets (3×10^8/mL) were incubated with different Fasudil or negative control (normal saline) for 10 min at room temperature. Thereafter, except the negative control, thrombin (0.1 U/ml) was added to each group, and incubation was carried out for 30 min at 37° C. Platelet ΔΨm was measured using the lipophilic cationic dye JC-1. JC-1 with a final concentration of 2 μg/ml was added to the treated platelets, and the platelets were incubated at 37° C. for 5 min in the dark, and detected by using the flow cytometer. […] The JC-1 monomer (λex 514 nm, λem 529 nm) and the polymer (λex 585 nm, λem 590 nm) were determined by calculating the proportion of flow red fluorescence (JC-1 polymer) or green fluorescence (JC-1 monomer) (FIG. 22).
Washed platelets (3×10^8/mL) were incubated with different Fasudil or negative control (normal saline) for 10 min at room temperature. Thereafter, except the negative control, thrombin (0.1 U/ml) was added to each group, and incubation was carried out for 30 min at 37° C. After that, Annexin V buffer, treated platelets, and Annexin V-FITC in a ratio of 50:10:1 were incubated for 15 min at room temperature in the dark, and detected by using the flow cytometer (FIG. 22).

washed platelets [2] = experiment: Mitochondrial membrane potential (ΔΨm) detection with JC-1 by flow cytometer; assay type: cell-based, human
Experimental: When washed platelets were prepared, venous blood from healthy volunteers was anticoagulated with ACD (2.5% sodium citrate, 2.0% glucose, and 1.5% citric acid) at 1:7, platelet-rich plasma (PRP) was obtained by centrifugation at 1300 rpm for 20 min, the PRP was centrifuged at 1500 g for 2 min, and the supernatant was discarded. The precipitated platelets were suspended, centrifuged and washed with CGS buffer (0.123 M sodium chloride, 0.033 M glucose, 0.013 M sodium citrate, pH 6.5). […] The platelets were counted by a counter. […]
Washed platelets (3×10^8/mL) were incubated with different concentrations of H89 (12.5 μM, 25 μM, 37.5 μM and 50 μM) or negative control (DMSO) for 10 min at room temperature, and then platelet ΔΨm was determined using the lipophilic cationic dye JC-1. JC-1 with a final concentration of 2 μg/ml was added to the treated platelets, and the platelets were incubated at 37° C. for 20 min in the dark, and detected by using a flow cytometer. […] The JC-1 monomer (λex 514 nm, λem 529 nm) and the polymer (λex 585 nm, λem 590 nm) were determined by calculating the proportion of flow red fluorescence (JC-1 polymer) or green fluorescence (JC-1 monomer). […]

caspase-3 = experiment: Western blot of caspase-3, gelsolin and caspase-3 activity in platelets; assay type: cell-based, human; conditions: different concentrations of H89, 22° C., 30 min
Experimental: Washed platelets were incubated with different concentrations of H89 (25 μM, 50 μM, and 100 μM) or negative control (DMSO) at room temperature for 10 min. The reaction was stopped by the addition of 2× cell lysis buffer (containing 2 mM PMSF, 2 mM NaF, 2 mM Na3VO4, and protease inhibitor), and the platelets were lysed on ice, and sampled. The samples were tested for expression of the corresponding proteins by Western blotting.
(§1) Different concentrations of H89 (0, 12.5, 25, 37.5, and 50 μM) were applied to washed platelets at 22° C. for 160 min, and mitochondrial transmembrane potential depolarization and PS exposure of platelets were detected by using the flow cytometer. The experiments were repeated four times. The washed platelets were pretreated with different concentrations of H89 at 22° C. for 30 min. At the same time, DMSO and A23187 treated negative control group and positive control group platelets were established. Caspase-3, gelsolin protein expression and caspase-3 activity in platelets were detected by Western blot. The FITC-labeled anti-CD41 antibody was mixed with the pre-treated platelets at a ratio of 1:10, and incubated at room temperature for 10 min in the dark. Analyzing the platelet size scatter plot, the decrease in the CD41 positive cell count represents a decrease in the platelet count. […]

washed platelets [3] = experiment: Platelet shrinkage experiment (FSC of GPIIb/IIIa positive platelets); assay type: cell-based, human
Experimental: Washed platelets were incubated with different concentrations of H89 (12.5 μM, 25 μM, 37.5 μM and 50 μM) or negative control (DMSO) at room temperature for 10 min. The platelets and the SZ21 antibody were then incubated for 30 min at room temperature. The platelets were centrifuged, resuspended with the FITC-labeled goat-anti-mouse antibody, and incubated for 30 min at room temperature in the dark. The platelets were collected by using a flow cytometer, and platelet scatter plots collected by FSC-FL1 were used to analyze the platelets. The degree of shrinkage of the platelets was evaluated by analyzing the change in FSC and evaluating the degree of FSC reduction in GPIIb/IIIa positive cells. A23187 was used as a positive control. DMSO was used as a negative control.
as §1, with “blot.” for “blot. The FITC-labeled anti-CD41 antibody was mixed with the pre-treated platelets at a ratio of 1:10, and incubated at room temperature for 10 min in the dark. Analyzing the platelet size scatter plot, the decrease in the CD41 positive cell count represents a decrease in the platelet count.”

washed platelets [4] = experiment: Scanning electron microscopy of platelet morphology; assay type: cell-based, human; conditions: 22° C., 160 min
Experimental: The washed platelets were fixed with 2.5% […] at 4° C. overnight. The washed platelets were sent to a scanning electron microscope sample room for sample preparation. Morphological analysis of the platelets was carried out by the scanning electron microscope (Japan Hitachi, 5-4700). Five different fields of view were selected for observation and photographing.
as §1

BAD position 155 = experiment: Western blot / co-immunoprecipitation of BAD Ser155 phosphorylation and Bel-xL in platelets; assay type: cell-based, human; conditions: 37.5 uM H89 or 10 uM forskin, 160 min
Experimental: Next, we further explored the mechanism by which PKA inhibits induction of platelet apoptosis. At room temperature, 3×10^8/mL washed platelets were incubated with different concentration gradients of H89 or the DMSO internal reference for 160 min. The platelets were lysed on ice for 30 min with an equal volume of lysis buffer. The product was electrophoretically separated by SDS-PAGE to obtain protein fragments of different sizes. The protein fragments were blocked in skim milk powder for one hour and then the primary antibody was added for incubation. […] The washed platelets were pretreated with 37.5 uM H89, 10 uM forskin and the DMSO internal reference respectively for 160 min at room temperature. Cytoplasmic proteins (FIG. 8B) and mitochondrial proteins (FIG. 8D) were extracted from the platelets, respectively. The interest proteins were detected by western blot. The amount of the interest proteins was analyzed by Image J software. Four experiments were counted to show the results in mean±standard deviation. After lysis, the pre-treated platelets were centrifuged at 17,000 g for 10 min at 4° C. The obtained supernatant was incubated with the corresponding antibody for precipitation overnight, and after incubation with protein A/G+ agarose beads at 4° C. for 2 hours, the beads were eluted for protein hybridization (FIG. 8C).

stored platelets = experiment: Clearance of stored platelets in the body; conditions: in vivo
Text: In addition to apoptosis, there are other changes in storage damage that result in the clearance of stored platelets in the body. Therefore, we investigated whether PKA activation protects platelet from apoptosis while preventing the stored platelets from being cleared.

Cn1c(=O)c2[nH]cnc2n(C)c1=O [Aminophylline, aminophylline]
platelet clearance in vivo (platelets; aminophylline 0.24 mmol/L, R300 0.1 μg/g after 10 min): can Inhibit

O=S(=O)(c1cccc2cnccc12)N1CCCNCC1 [Fasudil]
platelet apoptosis (washed platelets [1]): can Promote

O=S(=O)(NCCNCC=Cc1ccc(Br)cc1)c1cccc2cnccc12 [H89, N-[2-((p-bromocinnamyl)amino)ethyl]-5-isoquinoline sulfonamide]
ΔΨm depolarization in platelets, time dependence (washed platelets [2]): in a time-dependent manner
mitochondrial membrane potential (ΔΨm) depolarization in platelets, dose dependence (washed platelets [2]; H89 0, 12.5, 25, 37.5, 50 μM, 22° C., 160 min): dose-dependently induced
activation of caspase-3 (caspase-3): dose-dependently induced
digestion of caspase-3 substrate gelsolin (caspase-3): dose-dependently induced
forward scatter (FSC) of GPIIb/IIIa-positive platelets (shrinkage) (washed platelets [3]): decrease
typical apoptotic morphological changes (membrane vesicles, pseudopods, shrinkage, degranulation) (washed platelets [4]): dose-dependently induce
Bel-xL protein on the mitochondrial membrane (BAD position 155): decrease
co-immunoprecipitation of Bel-xL and BAD (BAD position 155): significantly reduced
phosphorylation of serine at the BAD position 155 (BAD position 155; room temperature): decreased
clearance of stored platelets by the body (stored platelets): speeds up the clearance

CCCCC[C@H](O)/C=C/[C@H]1[C@H](O)CC(=O)[C@@H]1C/C=C\CCCC(=O)O [PGE2, prostaglandin E2]
platelet counts versus NS group at 30 min (platelets): has statistic difference

Nc1ncnc2c1ncn2[C@@H]1O[C@@H]2COP(=O)(O)O[C@H]2[C@H]1O [cAMP, cyclic adenosine monophosphate]
platelet counts versus NS group at 30 min (platelets): has statistic difference

Cc1[nH]c(=O)c(C#N)cc1-c1ccncc1 [milrinone]
platelet counts in peripheral blood of mice (platelets; milrinone 1 mg/kg tail vein, R300 0.1 mg/kg i.p. after 10 min, vs NS): significantly increased
